Test results reported in patent US20250353873A1, “COMPOUNDS AND METHODS FOR MODULATING APOE EXPRESSION” (Ionis Pharmaceuticals, Inc., priority 2024, published 2025).
Strand notation (5' to 3'): a small letter for the sugar, then the base; units joined by * are phosphorothioate-linked, units joined directly phosphodiester-linked; [ ] holds rarer units or linkages, { } end groups; capitals alone tell only the bases. [ms] = mesyl phosphoramidate linkage; e = 2'-O-(2-methoxyethyl) (MOE); k = constrained ethyl (cEt); [5mC] = 5-methylcytosine; d = 2'-deoxy (DNA)

How the values were obtained:
human APOE RNA [1] = test: Dose-dependent inhibition of human APOE RNA in HepG2 cells, electroporation, 50,000 cells per well, RT-PCR normalized to GAPDH (Example 4, Tables 8-10); type: cell-based
Summary of the method: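 HepG2 cells, 50,000 per well, electroporated with modified oligonucleotide at various concentrations. APOE RNA quantified by RT-PCR with human primer probe set RTS3073, normalized to GAPDH. Values are percent APOE RNA relative to untreated control cells.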

human APOE RNA [2] = test: Potency (dose response, ED50) in APOE C57BL/6NTac-Apoeem7250 knock-in mice, 4 weeks (Example 14); type: in vivo
Summary of the method: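 Knock-in mice (3–4 per group) received a single ICV bolus of oligonucleotide, with PBS as control. At four weeks, cortex and spinal cord RNA was analysed by RT-qPCR with a human primer probe set, normalized to mouse Ppia, and expressed as % PBS control. ED50 was calculated from the dose response.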

human APOE RNA [3] = test: Potency (dose response, ED50) in APOE C57BL/6NTac-Apoeem7250 knock-in mice, 8 weeks (Example 15); type: in vivo
Procedure: Modified oligonucleotides described above were tested in the APOE C57BL/6NTac-Apoeem7250 knock-in mouse model described above.
APOE C57BL/6NTac-Apoeem7250 knock-in mice were divided into groups of 3-4 mice each. A group of 4 mice received a single ICV bolus with PBS as a negative control.
Eight weeks post treatment, mice were sacrificed, and RNA was extracted from cortical brain tissue and spinal cord for quantitative real-time RT-PCR analysis of RNA expression of […] using human primer probe set RTS3073 (described herein above). APOE RNA levels were normalized to mouse Ppia. Mouse Ppia was amplified using primer probe set m_cyclo24 (described herein above). Results are presented as percent human APOE RNA relative to the amount of APOE RNA in PBS treated animals, (% control). N.C. indicates values that were not calculated.
The half maximal effective dose (ED50) of each modified oligonucleotide was calculated using GraphPad Prism 10 software (GraphPad Software, San Diego, CA).

human APOE RNA [4] = test: Duration of action study in APOE C57BL/6NTac-Apoeem7250 knock-in mice (Example 16); type: in vivo; conditions: 300 μg ICV
Summary of the method: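 Knock-in mice (2-4 per group) received a single ICV bolus of 300 μg oligonucleotide or PBS. At various timepoints, cortex and spinal cord human APOE RNA was measured by RT-qPCR (RTS3073), normalized to mouse Ppia and expressed as % of PBS control.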

human APOE RNA [5] = test: Dose-dependent reduction of human APOE RNA in HepG2 cells, electroporation, 20,000 cells per well, normalized to PPIA (Example 4, Table 11); type: cell-based; conditions: HepG2 cells, 20,000 cells per well, approximately 24 hours
Procedure: HepG2 cells plated at a density of 20,000 cells per well were treated by electroporation with various concentrations of modified oligonucleotide as specified in the tables below. […] APOE RNA levels were measured using the human primer probe set RTS3073 (described herein above). APOE RNA levels were normalized to human PPIA. Human PPIA was amplified using human primer probe set mk_cycloA_2nd (forward sequence […], designated herein as SEQ ID NO: 13; reverse sequence […], designated herein as SEQ ID NO: 14; probe sequence […], designated herein as SEQ ID NO: 15). Normalized results are presented in the table below as percent APOE RNA, relative to the amount of APOE RNA in untreated control cells (% UTC). The half maximal inhibitory concentration (IC50) of each modified oligonucleotide was calculated in GraphPad Prism 10 (GraphPad Software, San Diego, CA) and is also presented in the table below.

[6] = cortex, single ICV bolus, GraphPad Prism 10

Aes^mCeoTeoTesGesGksTdsGdzAdzAdzTds^mCdsTdsTdsTdsAdzTksTksAesAe (eA*e[5mC]eTeT*eG*kG*dT*dG[ms]dA[ms]dA[ms]dT*d[5mC]*dT*dT*dT*dA[ms]kT*kT*eA*eA) [Compound No. 1757576]
APOE RNA (% UTC) (human APOE RNA [1]; 5 nM, HepG2, electroporation, 16-hour treatment): 86 % UTC
APOE RNA (% UTC) (human APOE RNA [1]; 13 nM, HepG2, electroporation, 16-hour treatment): 74 % UTC
APOE RNA (% UTC) (human APOE RNA [1]; 33 nM, HepG2, electroporation, 16-hour treatment): 80 % UTC
APOE RNA (% UTC) (human APOE RNA [1]; 82 nM, HepG2, electroporation, 16-hour treatment): 84 % UTC
APOE RNA (% UTC) (human APOE RNA [1]; 205 nM, HepG2, electroporation, 16-hour treatment): 74 % UTC
APOE RNA (% UTC) (human APOE RNA [1]; 512 nM, HepG2, electroporation, 16-hour treatment): 61 % UTC
APOE RNA (% UTC) (human APOE RNA [1]; 1,280 nM, HepG2, electroporation, 16-hour treatment): 45 % UTC
APOE RNA (% UTC) (human APOE RNA [1]; 3,200 nM, HepG2, electroporation, 16-hour treatment): 32 % UTC
APOE RNA (% UTC) (human APOE RNA [1]; 8,000 nM, HepG2, electroporation, 16-hour treatment): 22 % UTC
APOE RNA (% UTC) (human APOE RNA [1]; 20,000 nM, HepG2, electroporation, 16-hour treatment): 7 % UTC
IC50 (human APOE RNA [1]; HepG2, electroporation, 16-hour treatment): 0.82 µM
APOE RNA (% UTC) 5 nM (human APOE RNA [1]; HepG2 cells, electroporation, 24-hour treatment, 5 nM, Table 8): 86 % UTC
APOE RNA (% UTC) 13 nM (human APOE RNA [1]; HepG2 cells, electroporation, 24-hour treatment, 13 nM, Table 8): 81 % UTC
APOE RNA (% UTC) 33 nM (human APOE RNA [1]; HepG2 cells, electroporation, 24-hour treatment, 33 nM, Table 8): 63 % UTC
APOE RNA (% UTC) 82 nM (human APOE RNA [1]; HepG2 cells, electroporation, 24-hour treatment, 82 nM, Table 8): 67 % UTC
APOE RNA (% UTC) 205 nM (human APOE RNA [1]; HepG2 cells, electroporation, 24-hour treatment, 205 nM, Table 8): 46 % UTC
APOE RNA (% UTC) 512 nM (human APOE RNA [1]; HepG2 cells, electroporation, 24-hour treatment, 512 nM, Table 8): 23 % UTC
APOE RNA (% UTC) 1,280 nM (human APOE RNA [1]; HepG2 cells, electroporation, 24-hour treatment, 1,280 nM, Table 8): 24 % UTC
APOE RNA (% UTC) 3,200 nM (human APOE RNA [1]; HepG2 cells, electroporation, 24-hour treatment, 3,200 nM, Table 8): 11 % UTC
APOE RNA (% UTC) 8,000 nM (human APOE RNA [1]; HepG2 cells, electroporation, 24-hour treatment, 8,000 nM, Table 8): 15 % UTC
APOE RNA (% UTC) 20,000 nM (human APOE RNA [1]; HepG2 cells, electroporation, 24-hour treatment, 20,000 nM, Table 8): 2 % UTC
IC50 (human APOE RNA [1]; reduction of human APOE RNA, HepG2 cells, electroporation, 24-hour treatment, Table 8): 0.14 µM
APOE RNA (% control) Cortex (human APOE RNA [2]; cortex, ICV dose 10 μg): 108 % control
APOE RNA (% control) Cortex (human APOE RNA [2]; cortex, ICV dose 30 μg): 121 % control
APOE RNA (% control) Cortex (human APOE RNA [2]; cortex, ICV dose 100 μg): 63 % control
APOE RNA (% control) Cortex (human APOE RNA [2]; cortex, ICV dose 300 μg): 37 % control
APOE RNA (% control) Cortex (human APOE RNA [2]; cortex, ICV dose 700 μg): 31 % control
ED 50 (μg) Cortex (human APOE RNA [2]; [6]): 235.5 µg
APOE RNA (% control) Spinal Cord (human APOE RNA [2]; spinal cord, ICV dose 10 μg): 58 % control
APOE RNA (% control) Spinal Cord (human APOE RNA [2]; spinal cord, ICV dose 30 μg): 55 % control
APOE RNA (% control) Spinal Cord (human APOE RNA [2]; spinal cord, ICV dose 100 μg): 23 % control
APOE RNA (% control) Spinal Cord (human APOE RNA [2]; spinal cord, ICV dose 300 μg): 20 % control
APOE RNA (% control) Spinal Cord (human APOE RNA [2]; spinal cord, ICV dose 700 μg): 18 % control
ED 50 (μg) Spinal Cord (human APOE RNA [2]; spinal cord, single ICV bolus, GraphPad Prism 10): 23.0 µg
APOE RNA (% control) Cortex (human APOE RNA [3]; cortex, ICV dose 10 μg): 93 % control
APOE RNA (% control) Cortex (human APOE RNA [3]; cortex, ICV dose 30 μg): 92 % control
APOE RNA (% control) Cortex (human APOE RNA [3]; cortex, ICV dose 100 μg): 52 % control
APOE RNA (% control) Cortex (human APOE RNA [3]; cortex, ICV dose 300 μg): 30 % control
APOE RNA (% control) Cortex (human APOE RNA [3]; cortex, ICV dose 700 μg): 18 % control
ED 50 (μg) Cortex (human APOE RNA [3]; [6]): 135.7 µg
APOE RNA (% control) Spinal Cord (human APOE RNA [3]; ICV dose 10 μg): 33 % control
APOE RNA (% control) Spinal Cord (human APOE RNA [3]; ICV dose 30 μg): 15 % control
APOE RNA (% control) Spinal Cord (human APOE RNA [3]; ICV dose 100 μg): 13 % control
APOE RNA (% control) Spinal Cord (human APOE RNA [3]; ICV dose 300 μg): 9 % control
APOE RNA (% control) Spinal Cord (human APOE RNA [3]; ICV dose 700 μg): 9 % control
APOE RNA (% control) Cortex (human APOE RNA [4]; 7 days post-dose): 45 % control
APOE RNA (% control) Cortex (human APOE RNA [4]; 14 days post-dose): 32 % control
APOE RNA (% control) Spinal Cord (human APOE RNA [4]; 7 days post-dose): 42 % control
APOE RNA (% control) Spinal Cord (human APOE RNA [4]; 14 days post-dose): 25 % control
APOE RNA (% UTC) 5 nM (human APOE RNA [5]; PPIA-normalized, 5 nM): 78 % UTC
APOE RNA (% UTC) 13 nM (human APOE RNA [5]; PPIA-normalized, 13 nM): 74 % UTC
APOE RNA (% UTC) 33 nM (human APOE RNA [5]; PPIA-normalized, 33 nM): 70 % UTC
APOE RNA (% UTC) 82 nM (human APOE RNA [5]; PPIA-normalized, 82 nM): 56 % UTC
APOE RNA (% UTC) 205 nM (human APOE RNA [5]; PPIA-normalized, 205 nM): 41 % UTC
APOE RNA (% UTC) 512 nM (human APOE RNA [5]; PPIA-normalized, 512 nM): 25 % UTC
APOE RNA (% UTC) 1,280 nM (human APOE RNA [5]; PPIA-normalized, 1,280 nM): 12 % UTC
APOE RNA (% UTC) 3,200 nM (human APOE RNA [5]; PPIA-normalized, 3,200 nM): 6 % UTC
APOE RNA (% UTC) 8,000 nM (human APOE RNA [5]; PPIA-normalized, 8,000 nM): 3 % UTC
APOE RNA (% UTC) 20,000 nM (human APOE RNA [5]; PPIA-normalized, 20,000 nM): 7 % UTC
IC50 (human APOE RNA [5]; reduction of human APOE RNA, PPIA-normalized): 0.09 µM
